Measured values published in ChEMBL document CHEMBL4373654, “Discovery of (aza)indole derivatives as novel respiratory syncytial virus fusion inhibitors” (Medchemcomm, 2019).
≈ marks a conversion by molar mass, not a printed value. Calls of active or inactive are those of the source. The calls are words filed in the database; no cut-off is given here.

Assays:
[1] = Therapeutic index, ratio of CC50 for cytotoxicity against human Hep2 cells to EC50 for antiviral activity against Respiratory syncytial virus Long infected in HEp-2 cells; assay type: toxicity, cell-based; conditions: read-out: Ratio CC50/EC50
[2] = Cytotoxicity against human Hep2 cells assessed as reduction in cell viability after 6 days by MTT assay; assay type: cell-based; conditions: HEp-2 cells
[3] = test system: Respiratory syncytial virus; experiment: Antiviral activity against Respiratory syncytial virus Long infected in HEp-2 cells assessed as reduction in virus induced cytopathic effect measured after 6 days by MTT assay; assay type: functional, organism-based; conditions: human respiratory syncytial virus, HEp-2, 144 h
[4] = Clearance in ICR mouse at 5 mg/kg, iv or 25 mg/kg, po administered as single dose; assay type: ADME, organism-based; conditions: in vivo
[5] = test system: Respiratory syncytial virus; experiment: Inhibition of Respiratory syncytial virus Long F protein expressed in Flp-In T-REx 293 cells assessed as syncytia formation at 1 nM after 3 days by microscopic analysis; assay type: cell-based
[6] = Oral bioavailability in ICR mouse at 25 mg/kg administered as single dose; assay type: ADME, organism-based; conditions: in vivo
[7] = test system: Respiratory syncytial virus; experiment: Inhibition of Respiratory syncytial virus Long F protein expressed in Flp-In T-REx 293 cells assessed as cell-cell fusion at 1 nM after 3 days by microscopic analysis; assay type: cell-based
[8] = test system: Respiratory syncytial virus; experiment: Inhibition of Respiratory syncytial virus Long F protein expressed in Flp-In T-REx 293 cells assessed as reduction in syncytia formation at 10 nM after 3 days by microscopic analysis relative to control; assay type: cell-based
[9] = Half life in ICR mouse at 25 mg/kg, po administered as single dose; assay type: ADME, organism-based; conditions: in vivo
[10] = Solubility of compound by LYSA assay; assay type: physicochemical
[11] = AUC in ICR mouse at 25 mg/kg, po administered as single dose; assay type: ADME, organism-based; conditions: in vivo
[12] = Volume of distribution at steady state in ICR mouse at 5 mg/kg, iv administered as single dose; assay type: ADME, organism-based; conditions: in vivo, read-out: Vdss
[13] = Clearance in ICR mouse at 2 mg/kg, iv or 10 mg/kg, po administered as single dose; assay type: ADME, organism-based; conditions: in vivo
[14] = Oral bioavailability in ICR mouse at 10 mg/kg administered as single dose; assay type: ADME, organism-based; conditions: in vivo
[15] = AUC in ICR mouse at 10 mg/kg, po administered as single dose; assay type: ADME, organism-based; conditions: in vivo
[16] = Volume of distribution at steady state in ICR mouse at 2 mg/kg, iv administered as single dose; assay type: ADME, organism-based; conditions: in vivo, read-out: Vdss
[17] = Half life in ICR mouse at 10 mg/kg, po administered as single dose; assay type: ADME, organism-based; conditions: in vivo

SMILES | selectivity ratio [1] | CC50 at 144 h [2] [µM] | EC50 [3] [µM] | also measured
CS(=O)(=O)CCn1c(CN2C(=O)C3(CC3)c3ccncc32)cc2ccc(Cl)cc21 | 12 | 59.7 | 4.83 | –
O=C1N(Cc2cc3cc(Cl)ccc3n2[C@H]2CCS(=O)(=O)C2)c2cnccc2C12CC2 | 4720 | 42.5 | 0.009 | –
CS(=O)(=O)CCn1c(CN2C(=O)C3(CC3)c3ccncc32)cc2c(C#N)cccc21 | > 106 | > 100 | 0.94 | –
CS(=O)(=O)CCn1c(CN2C(=O)C3(CC3)c3ccncc32)cc2ccccc21 | 352 | 77.5 | 0.22 | –
CS(=O)(=O)CCn1c(CN2C(=O)C3(CC3)c3cnccc32)cc2cc(Cl)ccc21 | 484 | 96.8 | 0.2 | –
CCS(=O)(=O)CCn1c(CN2C(=O)C3(CC3)c3ccncc32)cc2cc(Cl)ccc21 | > 12500 | > 100 | 0.008 | –
CCS(=O)(=O)CCCn1c(CN2C(=O)C3(CC3)c3ccncc32)cc2cc(Cl)ccc21 | 17100 | 51.2 | 0.003 | –
CS(=N)(=O)CCn1c(CN2C(=O)C3(CC3)c3ccncc32)cc2cc(Cl)ccc21 (configuration not stated) | 11200 | 78.3 | 0.007 | –
O=C1N(Cc2cc3cc(Cl)ccc3n2[C@@H]2CCS(=O)(=O)C2)c2cnccc2C12CC2 | 18600 | 37.1 | 0.002 | clearance [4]: 30.2 mL/min/kg; inhibition [5]: inactive; bioavailability [6]: 24.5%; inhibition [7]: inactive; inhibition [8]: 100%; half-life [9]: 3.04 h; solubility [10]: 2 µg/mL (≈ 4.53 µM); AUC [11]: 3360 µg/L/h; Vd [12]: 2.35 L/kg
CS(=O)(=O)CCCn1c(CN2C(=O)C3(CC3)c3ccncc32)cc2cc(Cl)ccc21 | 12900 | 38.6 | 0.003 | –
CS(=O)(=O)CCn1c(CN2C(=O)C3(CC3)c3ccncc32)cc2cc(Cl)ncc21 | 300 | 98.9 | 0.33 | –
CS(=O)(=O)CCn1c(CN2C(=O)C3(CC3)c3ccncc32)cc2c(F)cccc21 | > 526 | > 100 | 0.19 | –
CS(=N)(=O)CCCn1c(CN2C(=O)C3(CC3)c3ccncc32)cc2cc(Cl)ccc21 (configuration not stated) | 11400 | 68.3 | 0.006 | –
COc1cccc2c1cc(CN1C(=O)C3(CC3)c3ccncc31)n2CCS(C)(=O)=O | > 1350 | > 100 | 0.074 | –
C[S+]([O-])CCCn1c(CN2C(=O)C3(CC3)c3ccncc32)cc2cc(Cl)ccc21 (configuration not stated) | 10200 | 92.1 | 0.009 | –
CS(=O)(=O)CCn1c(CN2C(=O)C3(CC3)c3ccncc32)cc2c(Cl)cccc21 | > 60 | > 100 | 1.67 | –
CS(=O)(=O)CCn1c(CN2C(=O)C3(CC3)c3ccncc32)cc2nc(Cl)ccc21 | 1180 | 74.5 | 0.063 | –
CS(=O)(=O)CCc1c(Cn2c(=O)n(C3CC3)c3ccncc32)nc2cc(Cl)ccn12 | – | – | – | clearance [13]: 93.3 mL/min/kg; bioavailability [14]: 16.9%; AUC [15]: 315 µg/L/h; Vd [16]: 1.29 L/kg; half-life [17]: 1.73 h
CS(=O)(=O)CCCCn1c(CN2C(=O)C3(CC3)c3ccncc32)cc2cc(Cl)ccc21 | > 16700 | > 100 | 0.006 | –
CS(=O)(=O)CCn1c(CN2C(=O)C3(CC3)c3ccncc32)cc2cc(Cl)ccc21 | 3740 | 67.4 | 0.018 | clearance [4]: 54.2 mL/min/kg; half-life [9]: 0.64 h; solubility [10]: 17 µg/mL (≈ 39.5 µM); AUC [11]: 1550 µg/L/h; Vd [12]: 1.38 L/kg
CS(=O)(=O)CCn1c(CN2C(=O)C3(CC3)c3cccnc32)cc2cc(Cl)ccc21 | > 588 | > 100 | 0.17 | –
CS(=O)(=O)CCn1c(CN2C(=O)C3(CC3)c3ccncc32)cc2cc(Cl)cnc21 | 1600 | 41.7 | 0.026 | clearance [4]: 23.7 mL/min/kg; half-life [9]: 0.7 h; solubility [10]: 5 µg/mL (≈ 11.6 µM); AUC [11]: 10200 µg/L/h; Vd [12]: 0.845 L/kg
CS(=O)(=O)CCn1c(CN2C(=O)C3(CC3)c3ccncc32)cc2c(Br)cccc21 | 3560 | 49.9 | 0.014 | –
CS(=O)(=O)CCn1c(CN2C(=O)C3(CC3)c3ccncc32)cc2cccc(Cl)c21 | 543 | 86.9 | 0.16 | –
Cc1cccc2c1cc(CN1C(=O)C3(CC3)c3ccncc31)n2CCS(C)(=O)=O | 6840 | 61.6 | 0.009 | –
CS(=O)(=O)CCn1c(CN2C(=O)C3(CC3)c3ccncc32)cc2c(C(F)(F)F)cccc21 | > 179 | > 100 | 0.56 | –
CCc1cccc2c1cc(CN1C(=O)C3(CC3)c3ccncc31)n2CCS(C)(=O)=O | 395 | 86.8 | 0.22 | –
